Experimental data from ChEMBL document CHEMBL1128132, “Ace inhibitors as a template for the design of bradykinin B2 receptor antagonists” (Bioorg Med Chem Lett, 1995).

Each molecule was assayed against T1, B2 bradykinin receptor (Homo sapiens, UniProt P30411) (assay: Tested for binding affinity against human IMR-90 Bradykinin receptor B2).
T1 sequence (P30411 whole entry): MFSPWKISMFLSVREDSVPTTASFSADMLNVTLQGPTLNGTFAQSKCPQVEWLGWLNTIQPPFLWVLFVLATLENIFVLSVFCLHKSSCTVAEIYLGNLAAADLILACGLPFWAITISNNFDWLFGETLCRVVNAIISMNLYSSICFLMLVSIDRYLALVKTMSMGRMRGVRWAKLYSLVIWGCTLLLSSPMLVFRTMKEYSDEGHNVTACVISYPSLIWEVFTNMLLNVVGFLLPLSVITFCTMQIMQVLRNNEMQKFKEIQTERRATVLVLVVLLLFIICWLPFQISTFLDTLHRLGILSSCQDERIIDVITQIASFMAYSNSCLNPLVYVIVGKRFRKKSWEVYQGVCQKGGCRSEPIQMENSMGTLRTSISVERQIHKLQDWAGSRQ
`CCCC[P+](CCCC)(CCCC)Cc1ccc(NC(=O)C2Cc3ccccc3CN2C(=O)C(CCc2ccccc2)NC(=O)OC(C)(C)C)cc1` (stereo not drawn) was tested, and the Ki was 8 µM.
`CCCC[P+](CCCC)(CCCC)Cc1ccc(NC(=O)C2Cc3ccccc3CN2C(=O)CCCc2ccccc2)cc1` (stereo not drawn) gave a Ki of 10 µM.

The molecules below were run against T2, B2 bradykinin receptor (Homo sapiens) (UniProt P30411) (assay: Tested for percent inhibition of binding affinity against Bradykinin receptor B2 at 10 uM concentration).
T2 sequence (whole entry): T1 sequence (P30411 whole entry)
With `CCCC[P+](CCCC)(CCCC)Cc1ccc(NC(=O)C2Cc3ccccc3CN2C(=O)C(CCc2ccccc2)NC(=O)OC(C)(C)C)cc1` (stereo not drawn) the inhibition was > 50%.
In the case of `CCCC[PH](CCCC)(CCCC)Cc1ccc(NC(=O)C2Cc3ccccc3CN2C(=O)[C@H](CCc2ccccc2)N/C(=N/C2CCCCC2)NC2CCCCC2)cc1` (single isomer, unassigned; diastereomer 2), the inhibition is reported as > 50%.
Work on `CCCC[P+](CCCC)(CCCC)Cc1ccc(NC(=O)C2Cc3ccccc3CN2C(=O)CNC(=O)OC(C)(C)C)cc1` (stereo not drawn) yielded an inhibition of 18%.
`CCCC[PH](CCCC)(CCCC)Cc1ccc(NC(=O)C2Cc3ccccc3CN2C(=O)[C@@H](N)CCc2ccccc2)cc1` (single isomer, unassigned; diastereomer 2) was tested, and the inhibition was 26%.
With `CCCC[PH](CCCC)(CCCC)Cc1ccc(NC(=O)C2Cc3ccccc3CN2C(=O)CN)cc1` (stereo not drawn) the inhibition was 36%.
`CCCC[PH](CCCC)(CCCC)Cc1ccc(NC(=O)C2Cc3ccccc3CN2/C(=N/C2CCCCC2)NC2CCCCC2)cc1` (stereo not drawn) gave an inhibition of 34%.
In the case of `CCCC[PH](CCCC)(CCCC)Cc1ccc(NC(=O)C2Cc3ccccc3CN2C(=O)CN/C(=N/C2CCCCC2)NC2CCCCC2)cc1` (stereo not drawn), the inhibition is reported as 33%.
For `CCCC[PH](CCCC)(CCCC)Cc1ccc(NC(=O)C2Cc3ccccc3CN2C(=O)[C@@H](N)CCc2ccccc2)cc1` (single isomer, unassigned; diastereomer 1), the inhibition was 26%.
For `CCCC[PH](CCCC)(CCCC)Cc1ccc(NC(=O)C2Cc3ccccc3CN2C(=O)[C@H](CCc2ccccc2)N/C(=N/C2CCCCC2)NC2CCCCC2)cc1` (single isomer, unassigned; diastereomer 1), the inhibition was > 50%.
With `O=C(Nc1ccc(CN/C(=N/C2CCCCC2)NC2CCCCC2)cc1)C1Cc2ccccc2CN1C(=O)CN/C(=N/C1CCCCC1)NC1CCCCC1` (stereo not drawn) the inhibition was 12%.
For `CCCC[P+](CCCC)(CCCC)Cc1ccc(NC(=O)C2Cc3ccccc3CN2C(=O)CCCc2ccccc2)cc1` (stereo not drawn), the inhibition was > 50%.
